Source: PubChem BioAssay (NCI)
Where “and” joins values, the source holds several entries; their conditions need not be identical. Identical values can stand only once.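 Exposure lasted 48 hours, with cells grown in 96-well plates and compounds tested at five concentrations. Abbreviation: GI50, concentration required for 50% inhibition of growth. Definition used: TGI = concentration required for complete inhibition of growth.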

test system: MDA-MB-468 breast; assay: inhibition of tumour cell growth, NCI panel, 48 h

Compound | GI50 | TGI
Oc1ccccc1/C=N/Nc1ccc2ccccc2n1 | 2600 nM | 14800 nM
O=C(NNc1nc2c(F)cccc2n2cccc12)c1cnccn1 | 535 nM | 2170 nM
CN(C)CC(=O)N1CCC(c2ccc(NC(=O)c3ncc(C#N)[nH]3)c(C3=CCCCC3)c2)CC1 | 4860 nM | 18500 nM
CCCCCCCCCCCCCC(=S)NCCCC[C@H](NC(=O)OCc1ccccc1)C(=O)Nc1ccccc1 | 2690 nM | > 100000 nM
COc1cc2c3c(cccc3c1)C(=O)N(CCN1CCCC1)C2=O | 1320 nM | 3700 nM
CN=C(N)N/N=C(\c1ccccc1)c1ccc(Br)cc1 | 275 nM | 1080 nM
CCC(C)C1NC(=O)c2nc(oc2-c2ccccc2)-c2csc(n2)-c2csc(n2)-c2nc(oc2C)-c2coc(n2)CNC(=O)C(C(C)CC)NC1=O (configuration not stated) | 30 nM | 101 nM
Cc1[nH]c(/C=C2\C(=O)Nc3ccc(S(=O)(=O)Cc4c(Cl)cccc4Cl)cc32)c(C)c1C(=O)N1CCC[C@@H]1CN1CCCC1 | 1520 nM | 2940 nM
COc1cc2ncn(-c3cc(OCc4ccccc4Cl)c(C(N)=O)s3)c2cc1OC | 49.9 nM | 429 nM
C[C@@H]1CC[C@@H]2[C@@H]1[C@H](OC(=O)/C=C/c1ccccc1)[C@]1(c3ccccc3)C[C@@H](OC(=O)CO)[C@@]2(C)O1 | 13600 nM | 29000 nM
COc1c(C2CC(=O)Nc3c2cnn3Cc2ccco2)cc2c(c1OC)OCO2 (configuration not stated) | 318 nM | > 100000 nM
Nc1n[nH]c2ccc([C@@H]3Nc4ccc5[nH]ncc5c4[C@H]4[C@H]5CCC(C5)[C@H]43)cc12 | 249 nM | 1420 nM
CCn1c(-c2nonc2N)nc2c(C#CCN)ncc(OCCCN)c21 | > 25000 nM | > 25000 nM
CN1CCN(CC#Cc2cccc(C(=O)c3cnn(-c4ccc(F)cc4)c3N)c2)CC1 | > 25000 nM | > 25000 nM
CCN1CCN(c2nc(NCCCNc3ccnc4cc(Cl)ccc34)c3ccccc3n2)CC1 | 1620 nM | 3610 nM
CC(=O)Nc1cccc(-n2c(=O)n(C3CC3)c(=O)c3c(Nc4ccc(I)cc4F)n(C)c(=O)c(C)c32)c1 | 2820 nM and > 10000 nM | 23600 nM and > 10000 nM
Brc1cccc(-c2cc(-c3ccc4c(c3)OCCO4)[nH]n2)c1 | 5600 nM | 33500 nM
COC(=O)C(=O)CC(=O)CCn1ncc(Cl)c(Cl)c1=O | 7010 nM | 22500 nM
COc1cccc(/C=C/C(=O)c2cc3c(N)c(C(=O)Nc4ccccc4C)sc3nc2C)c1 | 887 nM | 2040 nM
CCn1c(SCC(=O)Nc2cccc(C(=O)/C=C/c3cc(OC)c(OC)c(OC)c3)c2)nc2ccccc2c1=O | 4220 nM | 40200 nM
CNC(=O)c1ccccc1CC1(O)c2ccccc2Oc2ccccc21 | 3550 nM | 20500 nM
CN1CCN(Cc2ccc(C(=O)Nc3cncc(C#Cc4cnc(N)c5ccccc45)c3)cc2C(F)(F)F)CC1 | 1770 nM | 3650 nM
O=C(Nc1nc2ccccc2s1)OCC(F)(F)F | > 100000 nM | > 100000 nM

Compound | GI50 | TGI
C=CC(=O)N[C@H]1C=C(C)c2c(-c3cnc4ccccc4c3)c3c(N)ncnc3n2C1 | 26.5 nM | 485 nM
CC1(C)N=C(N)N=C(N)N1c1ccc(CCCCc2ccc(S(=O)(=O)F)cc2)cc1 | 539 nM | 9330 nM
COc1ccc(C(=S)N2CCN(c3cccc(Cl)c3)CC2)cc1 | 32300 nM | > 100000 nM
O=c1cc(-c2cccc(F)c2)[nH]c2cc3c(cc12)OCO3 | 10800 nM | 45200 nM
CC(C)(C)c1cc(O)c(O)c(C(C)(C)C)c1 | 2140 nM | 4770 nM
COC1(C(=O)N2Cc3nc(Cl)nc(N[C@H](C)c4cc(N)cc(C(F)(F)F)c4)c3C2)CCOCC1 | 4440 nM | 40100 nM
N#CC(=C1SCS1)[N+](=O)[O-] | 249 nM | 846 nM
Cc1ccc2c(C(C[N+](=O)[O-])c3cccs3)c(-c3ccccc3)[nH]c2c1 (configuration not stated) | 820 nM | 3020 nM
Cc1cc([C@@H](C)Nc2ccccc2C(=O)O)c2nc(N3CCOCC3)cc(=O)n2c1 | 2210 nM | > 10000 nM
COc1ccc(C(=O)Nc2ncc(Cc3ccc(Cl)cc3)s2)cc1 | 37.8 nM | 17500 nM
COc1ccccc1NC1=C(Cl)C(=O)c2nc(C)ccc2C1=O | 1520 nM | 3060 nM
Cc1nn(-c2ccc(F)cc2)c2ncnc(Nc3ccc(NC(=O)Nc4ccc(Cl)c(C(F)(F)F)c4)cc3)c12 | 1800 nM | 4540 nM
C=C1C(=O)O[C@H]2[C@H]1CC/C(CNC(=O)c1c[nH]c3ccc(F)cc13)=C\CC[C@@]1(C)O[C@@H]21 | 658 nM | 2060 nM
COc1ccc(-c2nn(-c3cccc(Cl)c3)cc2C2CC(c3ccccc3)=NN2C(C)=O)cc1 (configuration not stated) | 16300 nM | > 100000 nM
Clc1ccccc1C(c1ccccc1)(c1ccccc1)n1ccnc1 | 1770 nM | 6210 nM
O=C(Nc1cccc(-n2ccc3c(NC(=O)c4ccccc4)nccc32)c1)c1cccc(C(F)(F)F)c1 | 29.5 nM | 1540 nM
COc1cc(/C=C\[N+](=O)[O-])ccc1O | 1690 nM | 3500 nM
Cc1cc2nc3c4cc(Cl)ccc4n(CCN(C)C)c3nc2cc1C | 1410 nM | 3580 nM
Fc1cccc(COc2ccc(Nc3ncncc3C#Cc3ccccc3)cc2Cl)c1 | 8770 nM | > 25000 nM
NC(N)=N/N=C(/c1ccccc1)c1ccc(F)cc1 | 220 nM | 2460 nM
O=C(CSc1nc2ccc([N+](=O)[O-])cc2[nH]1)Nc1ccc(F)c(Cl)c1 | 1170 nM | 5070 nM
C#Cc1nc(C(=O)NCCC(=O)Nc2ccc(NC(=O)c3ccc(/C=C/C(=O)c4nccn4C)cc3)cc2)cs1 | 891 nM | 2170 nM
Cc1ccn2c3c(c(C(=O)O)c2c1)C(=O)c1ccccc1C3=O | 17300 nM | > 100000 nM
